Experiments:
Assay type in all cases: cell-based
[1] = biological target: T1, N-acylethanolamine acid amidase (hNAAA) (Homo sapiens, UniProt Q02083); test: competitive ABPP against probe […] in intact NAAA-HEK293 cells
T1 sequence (Q02083 29-125): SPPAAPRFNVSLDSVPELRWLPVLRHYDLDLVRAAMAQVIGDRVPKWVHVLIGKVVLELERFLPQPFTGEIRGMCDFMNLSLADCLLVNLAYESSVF
T1 sequence (Q02083 126-359): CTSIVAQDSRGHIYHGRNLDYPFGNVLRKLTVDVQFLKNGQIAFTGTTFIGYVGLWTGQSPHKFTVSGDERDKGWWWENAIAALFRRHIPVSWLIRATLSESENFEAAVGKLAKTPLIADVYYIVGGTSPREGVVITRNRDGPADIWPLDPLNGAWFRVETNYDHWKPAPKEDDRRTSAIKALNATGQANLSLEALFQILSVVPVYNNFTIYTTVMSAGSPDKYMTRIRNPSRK

[2] = biological target: T2, acid ceramidase (AC) (Rattus norvegicus, UniProt Q6P7S1); test: enzyme inhibition IC50
T2 sequence (Q6P7S1 21-141): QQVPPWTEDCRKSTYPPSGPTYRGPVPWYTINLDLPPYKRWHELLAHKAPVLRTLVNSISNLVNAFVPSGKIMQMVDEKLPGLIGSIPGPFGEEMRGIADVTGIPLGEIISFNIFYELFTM
T2 sequence (Q6P7S1 142-394): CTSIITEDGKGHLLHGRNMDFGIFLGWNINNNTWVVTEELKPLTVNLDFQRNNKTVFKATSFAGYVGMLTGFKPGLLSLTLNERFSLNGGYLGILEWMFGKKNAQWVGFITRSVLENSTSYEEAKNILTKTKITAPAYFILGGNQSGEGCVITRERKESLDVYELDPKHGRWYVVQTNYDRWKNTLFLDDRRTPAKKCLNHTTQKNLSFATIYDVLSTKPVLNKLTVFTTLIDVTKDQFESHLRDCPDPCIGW

[3] = biological target: T3, N-acylethanolamine acid amidase (rNAAA) (Rattus norvegicus, UniProt Q5KTC7); test: enzyme inhibition IC50
T3 sequence (Q5KTC7 34-130): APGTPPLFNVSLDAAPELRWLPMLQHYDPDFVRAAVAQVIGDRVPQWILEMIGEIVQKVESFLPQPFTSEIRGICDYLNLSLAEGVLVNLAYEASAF
T3 sequence (Q5KTC7 131-362): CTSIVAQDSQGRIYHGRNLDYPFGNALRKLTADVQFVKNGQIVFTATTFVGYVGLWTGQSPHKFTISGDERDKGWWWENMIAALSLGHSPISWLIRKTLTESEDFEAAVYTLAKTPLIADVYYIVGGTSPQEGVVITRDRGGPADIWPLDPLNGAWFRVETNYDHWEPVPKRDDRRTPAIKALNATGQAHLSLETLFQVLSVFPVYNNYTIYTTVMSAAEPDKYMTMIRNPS

IC50 [2] [µM]	IC50 [3] [µM]	SMILES	competitive ABPP against probe 1 in intact NAAA-HEK293 cells (40 μM) [1]
–	–	C[C@@H]1OC(=O)[C@@H]1NC(=O)OCCCCCc1ccccc1 [ARN077, 5-phenylpentyl N-[(2S,3R)-2-methyl-4-oxo-oxetan-3-yl]carbamate]	In either case, a decrease in signal intensity was observed, but a more pronounced masking of NAAA was noted
1.2	0.013	C#CCCCCCCCCCOC(=O)N[C@H]1CNC1=O [compound 1, undec-10-ynyl N-[(3S)-2-oxoazetidin-3-yl]carbamate]	–

From paper PMC4575644 (ACS chemical biology, 2015)
